# Experimental data published in ChEMBL document CHEMBL3997765 (Medchemcomm, 2016).
# Calls of active or inactive are those of the source. The calls are words filed in the database; no cut-off is given here.
# Target: T1, Mitogen-activated protein kinase 14 (Homo sapiens, UniProt Q16539)
# Assay: Inhibition of full length recombinant human GST-tagged p38alpha expressed in Escherichia coli by Z'-Lyte assay
# T1 sequence (Q16539 whole entry): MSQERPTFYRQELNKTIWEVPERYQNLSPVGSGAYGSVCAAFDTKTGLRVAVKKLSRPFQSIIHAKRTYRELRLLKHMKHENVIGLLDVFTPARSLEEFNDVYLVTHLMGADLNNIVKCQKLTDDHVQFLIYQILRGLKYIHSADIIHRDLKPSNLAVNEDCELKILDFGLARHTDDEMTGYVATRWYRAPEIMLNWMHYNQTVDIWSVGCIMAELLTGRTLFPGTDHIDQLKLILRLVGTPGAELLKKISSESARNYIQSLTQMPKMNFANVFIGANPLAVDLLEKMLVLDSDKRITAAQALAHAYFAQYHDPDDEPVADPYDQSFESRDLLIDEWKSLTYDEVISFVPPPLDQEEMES
row,SMILES,IC50 [nM]
1,Cc1ccc(C2=Nc3c(ncnc3S(=O)(=O)c3ccc(C)cc3)[S+]([O-])c3ccc(C)cc32)cc1 (stereo unspecified),42.7
2,CCCC1=Nc2c(ncnc2[S+]([O-])c2ccccc2)Sc2ccccc21 (stereo unspecified),969
3,c1ccc(Sc2ncnc3c2N=C(c2cccnc2)c2ccccc2S3)cc1,1250
4,[O-][S+](c1ccc(Cl)cc1)c1ncnc2c1N=C(c1ccccc1)c1cc(Cl)ccc1S2 (stereo unspecified),855

# Target: T1, Mitogen-activated protein kinase 14
# Assay: Inhibition of full length recombinant human GST-tagged p38alpha expressed in Escherichia coli at 10 uM using Ser/Thr04 peptide as substrate in presence of inactive MAPKAPK2 after 1 hr by FRET assay relative to control
row,SMILES,inhibition [%]
1,c1ccc(Sc2ncnc3c2N=C(c2ccccc2)c2ccccc2S3)cc1,18
2,Cc1ccc(C2=Nc3c(ncnc3S(=O)(=O)c3ccc(C)cc3)[S+]([O-])c3ccc(C)cc32)cc1 (stereo unspecified),100
3,CCCCNc1ncnc2c1N=C(c1ccccc1)c1cc(Cl)ccc1S2,-6
4,CCCCNc1ncnc2c1N=C(c1ccccc1)c1cc(C)ccc1S2,-4
5,Cc1ccc(C2=Nc3c(Sc4ccc(Cl)cc4)ncnc3Sc3ccc(Cl)cc32)cc1,4
6,Cc1ccc2c(c1)C(c1ccc(F)cc1)=Nc1c(N)ncnc1S2,4
7,COc1ccc(Sc2ncnc3c2N=C(Cc2ccccc2)c2cc(OC)ccc2S3)cc1,10
8,Cc1ccc2c(c1)C(c1cccnc1)=Nc1c(NCc3ccccc3)ncnc1S2,18
9,CCCC1=Nc2c(ncnc2[S+]([O-])c2ccccc2)Sc2ccccc21 (stereo unspecified),73
10,O=[N+]([O-])c1ccccc1C1=Nc2c(Sc3ccccc3)ncnc2Sc2ccccc21,63
11,c1ccc(Sc2ncnc3c2N=C(c2cccnc2)c2ccccc2S3)cc1,98
12,Cc1ccc(Sc2ncnc3c2N=C(c2cccnc2)c2cc(C)ccc2S3)cc1,4
13,Cc1ccc(Sc2ncnc3c2N=C(c2ccccc2)c2cc(C)ccc2S3)cc1,12
14,Cc1ccc([S+]([O-])c2ncnc3c2N=C(c2cccnc2)c2cc(C)ccc2S3)cc1 (stereo unspecified),100
15,Cc1ccc(S(=O)(=O)c2ncnc3c2N=C(c2ccccc2)c2cc(C)ccc2[S+]3[O-])cc1 (stereo unspecified),100
16,Cc1ccc(C2=Nc3c(NCc4ccccc4)ncnc3Sc3ccc(Cl)cc32)cc1,-2
17,CCCC1=Nc2c(Sc3ccc(C)cc3)ncnc2Sc2ccc(C)cc21,16
18,Cc1ccc(Sc2ncnc3c2N=C(Cc2ccccc2)c2cc(C)ccc2S3)cc1,1

row,SMILES,inhibition [%]
1,Cc1ccc([S+]([O-])c2ncnc3c2N=C(c2ccccc2)c2cc(C)ccc2S3)cc1 (stereo unspecified),95
2,Cc1ccc2c(c1)C(Cc1ccccc1)=Nc1c(NCc3ccccc3)ncnc1S2,19
3,Cc1ccc(C2=Nc3c(ncnc3[S+]([O-])c3ccc(C)cc3)Sc3ccc(C)cc32)cc1 (stereo unspecified),88
4,Fc1ccc(C2=Nc3c(Sc4ccccc4)ncnc3Sc3ccccc32)cc1,7
5,c1ccc(CC2=Nc3c(Sc4ccccc4)ncnc3Sc3ccccc32)cc1,9
6,c1ccc(C2=Nc3c(ncnc3N3CCCC3)Sc3ccccc32)cc1,-4
7,Cc1ccc(Sc2ncnc3c2N=C(c2ccc(F)cc2)c2cc(C)ccc2S3)cc1,0
8,[O-][S+](c1ccc(Cl)cc1)c1ncnc2c1N=C(c1ccccc1)c1cc(Cl)ccc1S2 (stereo unspecified),98
9,Cc1ccc2c(c1)C(c1ccc(F)cc1)=Nc1c(NCCO)ncnc1S2,-3
10,Cc1ccc(C2=Nc3c(ncnc3[S+]([O-])c3ccc(Cl)cc3)Sc3ccc(Cl)cc32)cc1 (stereo unspecified),99
11,Cc1ccc2c(c1)C(Cc1ccccc1)=Nc1c(NC3CCCCC3)ncnc1S2,29
12,CCCC1=Nc2c(NCc3ccccc3)ncnc2Sc2ccccc21,5
13,Cc1ccc(C2=Nc3c(NC4CCCCC4)ncnc3Sc3ccc(Cl)cc32)cc1,11
14,CCCC1=Nc2c(Sc3ccccc3)ncnc2Sc2ccccc21,11
15,Clc1ccc(Sc2ncnc3c2N=C(Cc2ccccc2)c2cc(Cl)ccc2S3)cc1,0
16,COc1ccc(Sc2ncnc3c2N=C(c2ccc(C)cc2)c2cc(OC)ccc2S3)cc1,30
17,Clc1ccc(Sc2ncnc3c2N=C(c2ccccc2)c2cc(Cl)ccc2S3)cc1,3

# Target: T1, Mitogen-activated protein kinase 14
# Assay: Inhibition of p38alpha phosphorylation in human MM1S cells after 3 hrs by western blot analysis
# Format: cell-based
row,SMILES,inhibition
1,Cc1ccc(C2=Nc3c(ncnc3S(=O)(=O)c3ccc(C)cc3)[S+]([O-])c3ccc(C)cc32)cc1 (stereo unspecified),Dose-dependent effect

# Target: T1, Mitogen-activated protein kinase 14
# Assay: Inhibition of p38alpha phosphorylation in human U266 cells at 10 uM after 3 hrs by western blot analysis
# Format: cell-based
row,SMILES,inhibition
1,Cc1ccc(C2=Nc3c(ncnc3S(=O)(=O)c3ccc(C)cc3)[S+]([O-])c3ccc(C)cc32)cc1 (stereo unspecified),Active
